In ChEMBL document CHEMBL3046264, “Juvenile hormone activity of ethyl 4-(2-aryloxyhexyloxy)benzoates with precocious metamorphosis-inducing activity” (Biosci Biotechnol Biochem, 2007):
Calls of active or inactive are those of the source. No cut-off for these calls is given here.

Legend:
Bombyx mori [1] = assay: Induction of precocious metamorphosis in allatectomized fourth-instar larvae of Bombyx mori Shunei x Shougetsu assessed as juvenile hormone activity at 1 ug applied topically to dorsal abdomen of larvae; format: functional, organism-based
Bombyx mori [2] = assay: Induction of precocious metamorphosis in allatectomized fourth-instar larvae of Bombyx mori Shunei x Shougetsu assessed as juvenile hormone activity at 10 to 40 ug applied topically to dorsal abdomen of larvae; format: functional, organism-based

Row | SMILES | Activity (Bombyx mori [1]) | Activity (Bombyx mori [2])
1 | CCOC(=O)c1ccc(OCC(CC)OC(=O)C(C)(C)C)cc1 (stereo unspecified) | Active | –
2 | CCCCC(COc1ccc(C(=O)OCC)cc1)Oc1ccccc1 (stereo unspecified) | inactive | Active
3 | COC(C)(C)CCC[C@H](C)C/C=C/C(C)=C/C(=O)OC(C)C | Active | –
4 | CCCCC(COc1ccc(C(=O)OCC)cc1)Oc1ccc(C)nc1 (stereo unspecified) | inactive | Active
